Laboratory results: patent US20230278972A1, “SUBSTITUTED HALOALKYL SULFONANILIDE HERBICIDES” (FMC Corporation, priority 2020, published 2023)

What was measured:
Assay type in all cases: in vivo
[1] = system: Foxtail, Giant (giant foxtail, Setaria faberi); assay: Test A1 preemergence, Foxtail, Giant
Method in brief: (§1)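 Both timings started from seed in a loam-sand blend. Preemergence pots got a directed soil application immediately; postemergence pots were sprayed when seedlings had one or two leaves and stood 2–10 cm. Each compound was prepared in a non-phytotoxic solvent plus surfactant.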

[2] = system: goosegrass (Eleusine indica); assay: Test A1 preemergence, goosegrass
Method in brief: as §1

[3] = system: Oat, Wild (wild oat, Avena fatua); assay: Test A1 preemergence, Oat, Wild
Method in brief: as §1

[4] = system: Pigweed, Palmer (palmer amaranth, palmer pigweed, Amaranthus palmeri); assay: Test A1 preemergence, Pigweed, Palmer
Method in brief: as §1

soybean (Glycine max) = assay: Test A1 preemergence, soybean
Method in brief: as §1

[5] = system: blackgrass (Alopecurus myosuroides); assay: Test A1 postemergence, blackgrass; conditions: Postemergence, 0 to 100 scale (0 no effect, 100 complete control)
Method in brief: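 Herbicidal response was scored on plants treated either preemergence, by directed spray onto soil of a loam–sand blend after sowing, or postemergence on potted plants at the one- to two-leaf stage, 2–10 cm high. Test chemicals were carried in a non-phytotoxic solvent mix with surfactant.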

corn (Zea mays) = assay: Test A1 postemergence, corn; conditions: Postemergence
Method in brief: as §1

[6] = system: barnyardgrass (Echinochloa crus-galli); assay: Test B1 flooded paddy test, barnyardgrass; conditions: 250 g ai/ha, Flood, applied to paddy water, 2-leaf stage, visually evaluated after 10 to 14 days
Source text: (§2) A dash (-) response means no test result.

[7] = system: ducksalad (Heteranthera limosa); assay: Test B1 flooded paddy test, ducksalad; conditions: 250 g ai/ha, Flood, applied to paddy water, 2-leaf stage, visually evaluated after 10 to 14 days
Source text: as §2

[8] = 31 g ai/ha, 0 to 100 scale (0 no effect, 100 complete control)
[9] = 125 g ai/ha, 0 to 100 scale, 0 no effect, 100 complete control
[10] = 31 g ai/ha, 0 to 100 scale (0 no effect, 100 complete control), 10 days

| SMILES | Plant response rating, Foxtail, Giant [1, 8] | Plant response rating, Foxtail, Giant [1, 9] | Plant response rating, Goosegrass [2, 8] | Plant response rating, Goosegrass [2, 9] | Plant response rating, Oat, Wild [3, 8] | Plant response rating, Oat, Wild [3, 9] | Plant response rating, Pigweed, Palmer [4, 8] | Plant response rating, Pigweed, Palmer [4, 9] | Plant response rating, Soybean (soybean (Glycine max); [8]) | Plant response rating, Soybean (soybean (Glycine max); [9]) | Plant response rating, Blackgrass ([5]; 31 g ai/ha, 10 days) | Plant response rating, Blackgrass ([5]; 125 g ai/ha) | Plant response rating, Corn (corn (Zea mays); [10]) | Plant response rating, Corn (corn (Zea mays); 125 g ai/ha, 0 to 100 scale) | Plant response rating, Barnyardgrass (0 to 100 scale, 0 is no effect, 100 is complete control) [6] | Plant response rating, Ducksalad (0 to 100 scale, 0 is no effect, 100 is complete control) [7] |
| --- | --- | --- | --- | --- | --- | --- | --- | --- | --- | --- | --- | --- | --- | --- | --- | --- |
| CCOC(=O)N(c1cc(C(=O)N2CCCCC2)c(C)c(C)c1C)S(=O)(=O)C(F)(F)F [Compound 330, Ethyl N-[(trifluoromethyl)sulfonyl]-N-[2,3,4-trimethyl-5-(1-piperidinylcarbonyl)phenyl]carbamate] | 80 | 100 | 40 | 100 | 0 | 20 | 70 | 80 | 0 | 30 | 0 | 40 | 0 | 10 | 95 | 95 |
| Cc1c(NS(=O)(=O)C(F)(F)F)cc(C(=O)N2CCCCC2)c(C)c1C [Compound 326] | 100 | 100 | 90 | 90 | 10 | 10 | 90 | 100 | 40 | 90 | 0 | 0 | 0 | 0 | 0 | 85 |
| Cc1c(NS(=O)(=O)C(F)(F)F)cc(C(=O)N2CCC(C)CC2)c(C)c1C [Compound 366] | 100 | 100 | 10 | 80 | 10 | 30 | 100 | 100 | 0 | 50 | 0 | 0 | 0 | 0 | 15 | 65 |
| CCC1CC(c2cc(NS(=O)(=O)C(F)(F)F)c(C)cc2C)=NO1 (centres unmarked) [Compound 375] | 10 | 90 | 70 | 100 | 0 | 20 | 0 | 80 | 0 | 30 | 0 | 0 | 0 | 0 | 50 | 60 |
| Cc1c(NS(=O)(=O)C(F)(F)F)cc(C(=O)N2CCC(Cl)CC2)c(C)c1C [Compound 356] | 90 | 100 | 90 | 90 | 0 | 20 | 50 | 100 | 0 | 80 | 0 | 0 | 0 | 40 | 45 | 45 |
